Reference: PubChem BioAssay (NCI)
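At the GI50, growth is halved. TGI denotes the concentration required for complete inhibition of growth.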

How the values were obtained:
Test in all cases: growth of human tumour cells (NCI), 384-well format
[1] = test system: HT29 colon
[2] = test system: SNB-19 CNS
[3] = test system: CAKI-1 renal
[4] = test system: COLO 205 colon
[5] = test system: T-47D breast
[6] = test system: SF-268 CNS
[7] = test system: UACC-257 melanoma
[8] = test system: OVCAR-3 ovarian
[9] = test system: RPMI-8226 leukemia
[10] = test system: HOP-62 NSCLC
[11] = test system: OVCAR-4 ovarian
[12] = test system: OVCAR-5 ovarian
[13] = test system: MDA-MB-231 breast
[14] = test system: NCI-H23 lung
[15] = test system: HCC-2998 colon
[16] = test system: LOX IMVI melanoma
[17] = test system: MALME-3M melanoma
[18] = test system: DU-145 prostate
[19] = test system: HL-60(TB) leukemia
[20] = test system: SNB-75 CNS
[21] = test system: M14 melanoma
[22] = test system: HCT-15 colon
[23] = test system: SF-539 CNS
[24] = test system: KM12 colon
[25] = test system: NCI-H322M lung
[26] = test system: NCI-H226 lung
[27] = test system: SK-MEL-5 melanoma
[28] = test system: MCF7 breast
[29] = test system: NCI-H522 lung
[30] = test system: HS 578T breast
[31] = test system: BT-549 breast
[32] = test system: IGROV1 ovarian
[33] = test system: SN12C renal
[34] = test system: SK-OV-3 ovarian
[35] = test system: OVCAR-8 ovarian
[36] = test system: SK-MEL-28 melanoma
[37] = test system: MOLT-4 leukemia
[38] = test system: HCT-116 colon
[39] = test system: EKVX NSCLC
[40] = test system: NCI-H460 NSCLC
[41] = test system: A549 NSCLC
[42] = test system: U251 glioblastoma
[43] = test system: MDA-MB-435 melanoma
[44] = test system: HOP-92 NSCLC
[45] = test system: RXF 393 renal
[46] = test system: SF-295 CNS
[47] = test system: PC-3 prostate
[48] = test system: A498 renal
[49] = test system: ACHN renal
[50] = test system: SR leukemia
[51] = test system: TK-10 renal
[52] = test system: NCI/ADR-RES ovarian
[53] = test system: UACC-62 melanoma

COc1ccc(-c2cc3nccn3c(Nc3ncccc3C(N)=O)n2)cc1OC
GI50 [1]: 6.96 µM | TGI [1]: > 100 µM | GI50 [2]: 51.6 µM | TGI [2]: > 100 µM | GI50 [3]: 0.392 µM | TGI [3]: > 100 µM | GI50 [4]: 0.522 µM | TGI [4]: > 100 µM | GI50 [5]: > 100 µM | TGI [5]: > 100 µM | GI50 [6]: 2.02 µM | TGI [6]: > 100 µM | GI50 [7]: 91.7 µM | TGI [7]: > 100 µM | GI50 [8]: 2.36 µM | TGI [8]: > 100 µM | GI50 [9]: 1.62 µM | TGI [9]: > 100 µM | GI50 [10]: 0.784 µM | TGI [10]: 71.4 µM | GI50 [11]: > 100 µM | TGI [11]: > 100 µM | GI50 [12]: 4.46 µM | TGI [12]: > 100 µM | GI50 [13]: > 100 µM | TGI [13]: > 100 µM | GI50 [14]: 0.858 µM | TGI [14]: > 100 µM | GI50 [15]: 46.6 µM | TGI [15]: > 100 µM | GI50 [16]: 0.461 µM | TGI [16]: 4.31 µM | GI50 [17]: > 100 µM | TGI [17]: > 100 µM | GI50 [18]: 0.914 µM | TGI [18]: 12.3 µM | GI50 [19]: 1.15 µM | TGI [19]: 3.05 µM | GI50 [20]: > 100 µM | TGI [20]: > 100 µM | GI50 [21]: > 100 µM | TGI [21]: > 100 µM | GI50 [22]: 0.677 µM | TGI [22]: > 100 µM | GI50 [23]: 4.82 µM | TGI [23]: > 100 µM | GI50 [24]: 1.73 µM | TGI [24]: > 100 µM | GI50 [25]: 2.06 µM | TGI [25]: > 100 µM | GI50 [26]: 6.52 µM | TGI [26]: > 100 µM | GI50 [27]: 0.567 µM | TGI [27]: > 100 µM | GI50 [28]: 1.11 µM | TGI [28]: > 100 µM | GI50 [29]: 0.587 µM | TGI [29]: > 100 µM | GI50 [30]: 1.31 µM | TGI [30]: > 100 µM | GI50 [31]: 2.26 µM | TGI [31]: > 100 µM | GI50 [32]: 0.666 µM | TGI [32]: > 100 µM | GI50 [33]: 0.819 µM | TGI [33]: > 100 µM | GI50 [34]: 0.571 µM | TGI [34]: > 100 µM | GI50 [35]: 2.14 µM | TGI [35]: > 100 µM | GI50 [36]: > 100 µM | TGI [36]: > 100 µM | GI50 [37]: 1.48 µM | TGI [37]: 5.77 µM | GI50 [38]: 0.454 µM | TGI [38]: 10.9 µM | GI50 [39]: 17.9 µM | TGI [39]: > 100 µM | GI50 [40]: 0.555 µM | TGI [40]: 12.4 µM | GI50 [41]: 17.9 µM | TGI [41]: > 100 µM | GI50 [42]: 7.43 µM | TGI [42]: > 100 µM | GI50 [43]: > 100 µM | TGI [43]: > 100 µM | GI50 [44]: > 100 µM | TGI [44]: > 100 µM | GI50 [45]: 2.36 µM | TGI [45]: 91 µM | GI50 [46]: > 100 µM | TGI [46]: > 100 µM | GI50 [47]: 2.17 µM | TGI [47]: > 100 µM | GI50 [48]: 0.518 µM | TGI [48]: > 100 µM | GI50 [49]: 0.45 µM | TGI [49]: 3.75 µM | GI50 [50]: 0.129 µM | TGI [50]: 0.301 µM | GI50 [51]: 0.692 µM | TGI [51]: > 100 µM | GI50 [52]: 1.87 µM | TGI [52]: > 100 µM | GI50 [53]: 0.675 µM | TGI [53]: > 100 µM
